Patent US20240366756A1, “COMBINATIONS AND USES THEREOF” (Incyte Corporation, priority 2011, published 2024)

B1: RefmAb33: antibody specific for RSV, used as isotype control, shares the same Fc region as MOR00208 (SEQ ID NO: 8, 9) (antibody)
heavy: QVTLRESGPALVKPTQTLTLTCTFSGFSLSTAGMSVGWIRQPPGKALEWLADIWWDDKKHYNPSLKDRLTISKDTSKNQVVLKVTNMDPADTATYYCARDMIFNFYFDVWGQGTTVTVSSASTKGPSVFPLAPSSKSTSGGTAALGCLVKDYFPEPVTVSWNSGALTSGVHTFPAVLQSSGLYSLSSVVTVPSSSLGTQTYICNVNHKPSNTKVDKKVEPKSCDKTHTCPPCPAPELLGGPDVFLFPPKPKDTLMISRTPEVTCVVVDVSHEDPEVQFNWYVDGVEVHNAKTKPREEQFNSTFRVVSVLTVVHQDWLNGKEYKCKVSNKALPAPEEKTISKTKGQPREPQVYTLPPSREEMTKNQVSLTCLVKGFYPSDIAVEWESNGQPENNYKTTPPMLDSDGSFFLYSKLTVDKSRWQQGNVFSCSVMHEALHNHYTQKSLSLSPGK
light: DIQMTQSPSTLSASVGDRVTITCSASSRVGYMHWYQQKPGKAPKLLIYDTSKLASGVPSRFSGSGSGTEFTLTISSLQPDDFATYYCFQGSGYPFTFGGGTKVEIKRTVAAPSVFIFPPSDEQLKSGTASVVCLLNNFYPREAKVQWKVDNALQSGNSQESVTEQDSKDSTYSLSSTLTLSKADYEKHKVYACEVTHQGLSSPVTKSFNRGEC
modifications: Heavy chain RefMab33; Light chain RefMab33

Test system: MEC-1 cells
Test: Cytotoxicity/ADCC cell killing of MEC-1 cells with PBMCs (FACS, propidium iodide)
Type: cell-based, human
Settings: for normalized specific killing: combination set to 1, Bendamustine 100 μg/ml, MOR00208 6.6 pM; for % dead cells: MOR00208 6.6 pm, BEN 100 μg/ml (48 h pre-incubation), E:T 30:1, 4 h, control RefMab33
Description: MEC-1 cells: chronic B-cell leukemia cell line DSMZ #ACC497; Cell Medium: Iscove's Modified Dulbecco's Medium (IMDM) with GlutaMAX™, Invitrogen, Cat No.: 31980-048, 20% FCS; PBMCs: RPMI1640, with stabile Glutamine, PAN Biotech GmbH, Cat No.: P04-13500 supplemented with 10% FCS; Biocoll: Biochrome AG CAT No.: L6115 LOT No.: 1050T; Bendamustine: Mundipharma LOT No.: 88018; FCS: PAN CAT No.: 3302-P282403 LOT No.: P282403; and RefmAb33 (anti-RSV) with same Fc region as MOR00208.
The cytotoxicity of MOR00208 and bendamustine alone and in combination was tested in MEC-1 cells. BEN is an alkylating agent, therefore, functions via direct cytoxicity in MEC-1 cells. MOR00208 targets CD19 and additionally functions via ADCC in killing MEC-1 cells. For the following groups MEC-1 cell killing was measured: BEN at 100 μg/ml; MOR00208 at 6.6 pm and the combination of MOR00208 at 6.6 pm and BEN at 100 μg/ml. […] The following were used as controls: RefmAb33, or PBMCs alone. In both the BEN group and MOR00208+BEN combination group, MEC-1 cells were pre-incubated with BEN 48 hours prior to the ADCC assay measurements. The MEC-1 cells were stained using 1 mg/ml Calcein AM then counted and adjusted to 2×10^5/ml. The PBMCs were counted and adjusted to 6×10^6/ml. The cell killing assays were done as follows: using 96 well plates, a 100 μl cell suspension of MEC-1 cells was added per well, then 100 μl cell suspension of PBMCs was added to each well resulting in an E:T ratio of 30:1. The antibodies were diluted to 1 μg/ml in medium. Cells were centrifuged and re-suspended. To the target:effector cell-pellet, 100 μl antibody solution or according control solution was added. The mixture was incubated for 4 h in CO2-incubator at 37° C. The cell killing measurements were taken as follows: the incubated cell solution (˜100 μl) was transferred into FACS tubes and 200 μl FACS buffer (DPBS+3% FCS) and 0.5 μl PI stock solution was added to each tube. FACS-Calibur was used. Dead MEC-1 cells were stained with propidium iodide.
The values represent % dead cells. Each experiment represents PBMCs from different donors. The controls used for each experiment was RefMab33.
The values shown in Table 2 are calculated as follows: 1) from the raw data (% dead cells) shown in Table 1, the background (controls) were subtracted, resulting in the specific killing for each treatment group; then 2) the specific killing values were normalized by setting the combination of MOR00208+BEN to 1. The averages of Table 2 are depicted in FIG. 5.
[…] (CI) calculations were completed in order to determine synergy of the combination of the exemplified anti-CD19 antibody and bendamustine as compared to MOR00208 and BEN alone. Such calculations are described in Ting-Chao Chou, Theoretical Basis, Experimental Design, and Computerized Simulation of Synergism and Antagonism in Drug Combination Studies, Pharmacol Rev 58:621-681 (2006), which is incorporated by reference in its entirety and Chou T C, Talalay P, Quantitative analysis of dose-effect relationships: the combined effects of multiple drugs or enzyme inhibitors. Adv Enzyme Regul 22:27-55 (1984), which is incorporated by reference in its entirety. The methods of Chou-Talalay are carried out using the CI-isobol method.
The median-effect equation models of the effect of an inhibitor (such as a drug) as Fa/Fu=(D/D50)^m, where D is the dose, Fa and Fu is the fraction of the system affected and unaffected by the dose D (Fa+Fu=1); D50 is the dose producing the median effect (e.g. IC50, ED50, LD50). The constant m determines the shape of the dose-effect curve. We used Excel Fit software to carry out a linear regression calculation to estimate the parameters m and D50.
The effects of the combination on MEC-1 cells is measured % cell death as described above.

| Molecule | normalized specific killing (Average of experiments 1-3) | % dead cells (Experiment 1 (PBMC donor)) [%] | normalized specific killing (Experiment 1, background subtracted) | % dead cells (Experiment 2 (PBMC donor)) [%] | normalized specific killing (Experiment 2, background subtracted) | % dead cells (Experiment 3 (PBMC donor)) [%] | normalized specific killing (Experiment 3, background subtracted) | EC50 (concentration chosen as near or at the EC50, read-out: EC50 (MEC-1 cell killing)) [pM] | Bonferroni's Multiple Comparison Test Mean Diff. (normalized specific killing, monotherapy vs. BEN + MOR00208 combination) |
| --- | --- | --- | --- | --- | --- | --- | --- | --- | --- |
| MOR00208: anti-CD19 antibody; variable domains shown in FIG. 3, heavy and light chain Fc regions in FIG. 4 | 0.6 | 73.6 | 0.70 | 41.5 | 0.50 | 57.2 | 0.50 | ~6.6 | −0.4321 |
| B1 |  | 25.2 |  | 18 |  | 30.9 |  |  |  |
